Read-outs that look alike come from different tables or passages of the source. Blank lines part the entries; values can stand above or below the compound they belong to.
Tests used:
[1] = assay type: in vitro ADME
Description: (§1) The diffusion rates of different rosemary extract solutions through diffusion cells that mimic human skin were calculated and analyzed using UV-VIS spectrophotometry to measure rosmarinic acid content. Franz diffusion cells from Permegear, USA, with 47 mm, 200 nm inert polycarbonate membrane filters, were used with 5 ml extract solution samples. The speed of diffusion of different rosemary extracts were calculated at 1, 2, 3, 4, 10, 20, 30, 60, 120, 360 minutes (and up to 1 day of duration) at a rotational speed of 50 rpm to mimic a dermal application. The amount of rosmarinic acid that passed through the filter was determined by absorbance graphics on a UV spectrophotometer (Agilent 8453). A standard calibration curve was determined for rosmarinic acid and the absorbances were measured at 323 nm to determine the % concentrations released.
For a reference or baseline sample, a decoction of rosemary in water alone was prepared at a 1:5 ratio.
A soapwort decoction (an extraction medium with a saponin content) was prepared in water at a 1:5 ratio. A consequent decoction of rosemary (i.e., a rosemary extract solution) was prepared in the mentioned soapwort decoction at a 1:5 ratio. […] Thus, the transdermal delivery of rosmarinic acid using the method of the present invention is much faster than classical water decoctions predominantly used in modern dermal or cosmetic formulations.
as §1, with “5, 40” for “4, 10, 20, 30, 60, 120, 360”
A soapwort decoction (an extraction medium with a saponin content) was prepared in water at a 1:5 ratio. A decoction of rosemary (i.e., a rosemary extract solution) was prepared in 5×distilled water. The mentioned soapwort decoction and the water decoction of the rosemary leaves were then mixed at a 1:1 ratio. The following diffusion values were measured for this mixture: 14% at minute 1, 49.4% at minute 3, and 100% at minute 5.
The diffusion rates of rosemarinic acid in rosemary essential oil through diffusion cells that mimic human skin were calculated and analyzed using UV-VIS spectrophotometry to measure rosmarinic acid content. Franz diffusion cells from Permegear, USA, with 47 mm, 200 nm inert polycarbonate membrane filters, were used with 5 ml extract solution samples. The speed of diffusion of different rosemary extracts were calculated at 1, 2, 3, 4, 7, 10, 20, 40 minutes (and up to 1 day of duration) at a rotational speed of 50 rpm to mimic a dermal application. The amount of rosmarinic acid that passed through the filter was determined by absorbance graphics on a UV spectrophotometer (Agilent 8453). A standard calibration curve was determined for rosmarinic acid and the absorbances were measured at 323 nm to determine the % concentrations released.

[2] = Diffusion of carvacrol in thyme essential oil through Franz diffusion cells that mimic human skin (UV-VIS, 272 nm); assay type: in vitro ADME
Description: The diffusion rates of carvacrol in thyme (Tymus vulgaris) essential oil through diffusion cells that mimic human skin were calculated and analyzed using UV-VIS spectrophotometry to measure carvacrol content. Franz diffusion cells from Permegeaer, USA, with 47 mm, 200 nm inert polycarbonate membrane filters, were used with 5 ml extract solution samples. […] The amount of carvacrol that passed through the filter was determined by absorbance graphics on a UV spectrophotometer (Agilent 8453). A standard calibration curve was determined for carvacrol and the absorbances were measured at 272 nm to determine the % concentrations released.
The diffusion rates of carvacrol in thyme (Tymus vulgaris) essential oil (0.05 ml of thyme essential oil) dispersed in 1 ml of soapwort extract solution through diffusion cells that mimic human skin were calculated and analyzed using UV-VIS spectrophotometry to measure carvacrol content. Franz diffusion cells from Permegear, USA, with 47 mm, 200 nm inert polycarbonate membrane filters, were used with 5 ml extract solution samples. The speed of diffusion of different thyme extracts were calculated at 1, 3, 5, 7, 10, 20, 40 minutes (and up to 1 day of duration) at a rotational speed of 50 rpm to mimic a dermal application. The amount of carvacrol that passed through the filter was determined by absorbance graphics on a UV spectrophotometer (Agilent 8453). A standard calibration curve was determined for carvacrol and the absorbances were measured at 272 nm to determine the % concentrations released.
The diffusion rates of carvacrol in thyme (Tymus vulgaris) essential oil (0.05 ml of thyme essential oil dispersed in 1 ml of licorice extract solution) through diffusion cells that mimic human skin were calculated and analyzed using UV-VIS spectrophotometry to measure carvacrol content. Franz diffusion cells from Permegeaer, USA, with 47 mm, 200 nm inert polycarbonate membrane filters, were used with 5 ml extract solution samples. The speed of diffusion of different thyme extracts were calculated at 1, 2, 3, 4, 7, 10, 20, 30, 40 minutes (and up to 1 day of duration) at a rotational speed of 50 rpm to mimic a dermal application. The amount of carvacrol that passed through the filter was determined by absorbance graphics on a UV spectrophotometer (Agilent 8453). A standard calibration curve was determined for carvacrol and the absorbances were measured at 272 nm to determine the % concentrations released.

[3] = assay type: physicochemical
Description: 100% of the carvacrol present in soapwort extract solution was released at the end of 40 minutes whereas about 90% of carvacrol present in licorice extract solution at the end of 40 minutes. When the solubilities were compared, it was observed that 0.5% of thyme oil was clearly dissolved in soapwort water extract and maximum 2% of thyme oil could be homogenously dispersed in soapwort. The maximum amount of thyme oil dissolved in licorice was 0.5%. Absorbance results clearly indicate that soapwort water extract has higher potential to dissolve and diffuse carvacrol of Thyme essential oil than does licorice.

- absorbance values [1]: minimal
- fraction of the control sample diffusion time [1]: 1/30
- penetration rate relative to control sample (only water decoction of rosemary) [1]: approximately 30 ×
- transdermal delivery (in words) [1]: negligible
- rosemarinic acid released ([1]; 40 min): 0%
- rosmarinic acid content passed through the membrane ([1]; 150 min): 100%
Compound: O=C(/C=C/c1ccc(O)c(O)c1)O[C@H](Cc1ccc(O)c(O)c1)C(=O)O [Rosmarinic Acid, rosmarinic acid]

Compound: Cc1ccc(C(C)C)cc1O [carvacrol]
- diffusion ([2]; 0.05 ml thyme essential oil in 1 ml licorice extract solution, after 24 hours): 100%
- diffusion value ([2]; 0.05 ml thyme essential oil in 1 ml licorice extract solution, minute 1): 0%
- diffusion value ([2]; 0.05 ml thyme essential oil in 1 ml licorice extract solution, minute 2): 3.98%
- diffusion value ([2]; 0.05 ml thyme essential oil in 1 ml licorice extract solution, minute 3): 14.41%
- diffusion value ([2]; 0.05 ml thyme essential oil in 1 ml licorice extract solution, minute 4): 32.98%
- diffusion value ([2]; 0.05 ml thyme essential oil in 1 ml licorice extract solution, minute 7): 42.59%
- diffusion value ([2]; 0.05 ml thyme essential oil in 1 ml licorice extract solution, minute 10): 56.35%
- diffusion value ([2]; 0.05 ml thyme essential oil in 1 ml licorice extract solution, minute 20): 67.61%
- diffusion value ([2]; 0.05 ml thyme essential oil in 1 ml licorice extract solution, minute 30): 77.73%
- diffusion value ([2]; 0.05 ml thyme essential oil in 1 ml soapwort extract solution, minute 1): 8.20%
- diffusion value ([2]; 0.05 ml thyme essential oil in 1 ml soapwort extract solution, minute 3): 26.43%
- diffusion value ([2]; 0.05 ml thyme essential oil in 1 ml soapwort extract solution, minute 5): 44.75%
- diffusion value ([2]; 0.05 ml thyme essential oil in 1 ml soapwort extract solution, minute 7): 66.29%
- diffusion value ([2]; 0.05 ml thyme essential oil in 1 ml soapwort extract solution, minute 10): 77.15%
- diffusion value ([2]; 0.05 ml thyme essential oil in 1 ml soapwort extract solution, minute 20): 91.39%
- diffusion value ([2]; 0.05 ml thyme essential oil in 1 ml soapwort extract solution, minute 40): 100%
- transdermal delivery (in words) ([2]; thyme essential oil alone): negligible
- carvacrol released ([2]; thyme essential oil alone, end of 40 minutes): 0%
- absorbance values ([2]; thyme essential oil alone, end of 48 hours): minimal

- maximum amount homogenously dispersed in soapwort [3]: 2%
Compound: thyme oil
